Source: patent US9597324B2, “Treatment of CNS disorders associated with mutations in genes encoding lysosomal enzymes” (Amicus Therapeutics, Inc., priority 2005, dated 2017)

Assays:
human L444P mutated Gba = experiment: Gba activity in brain and organs of L444P transgenic mice treated with chaperone in drinking water (incl. washout study); assay type: in vivo, mouse; conditions: for Gba activity in brain: about 10 mg/kg/day in drinking water
Experimental: L444P is a mutation associated with Types 2 and 3 Gaucher disease. […] Concomitant glucosylceramide synthase disruption is necessary, since previously made L444P transgenic mice died within 3 days of birth due to impaired permeability barrier function in the epidermis.
In addition, mice in a “washout” period of 2 weeks of non-chaperone treatment following 4 weeks of treatment were also evaluated for reversion of surrogate markers back to levels seen in untreated controls.
Mice were administered isofagomine or C-benzyl-isofagomine in their drinking water, ad libitum. Estimated daily dosage based on the volume of water consumed is about 10 mg/kg/day.
[…] Brian tissue is freshly harvested (blood washed away with PBS), or thawed from frozen stock. Tissue is minced tissue and homogenized on ice in 200-500 μl McIlvaine (MI) buffer (0.25% sodium taurocholate, 0.1% Triton x-100 in 0.1M citrate and 0.2M phosphate buffer, pH 5.2), and centrifuged at 10,000×g. The supernatant is collected and may be frozen at this step.
About 1-10 μl of supernatant from the brain tissue homogenates is added to a clear 96-well plate for the Micro BCA Protein Assay (Pierce, cat #23235) to quantitate the amount of total protein according to the manufacturer's protocol. As a negative control, another 10 μl is added to a black plate, mixed with 10 μl of 2.5 mM CBE (2.7 mg Conduritol B Epoxide in 6.7 ml buffer), an inhibitor of Gba activity, and left at room temperature (RT) for 30 minutes. 50 μl of 3 mM 4-methal Umbelliferal beta-D-glucoside (4-MU-beta-D-glucoside; made fresh, powder is dissolved in 0.2 ml of DMSO, then q.s. to proper volume with MI buffer), a Gba substrate, is then added, and the black plate is further incubated at 37° C. for 1 hr. After incubation, 10 μl of supernatant is added to a second black plate, mixed with 10 μl of MI buffer and 50 μl […] of Gba substrate 4-MU-beta-D-glucoside, and incubated at 37° C. for 1 hr. The reaction is then stopped by adding 70 μl 0.2 M glycine, pH 10.8. The plate is read in a plate-reader (Victor2 1420 multilabel counter; Wallac) at F460.
Relative […] is determined by the following equation: F460 without CBE−F460 with CBE)/(A550 sample−A550 buffer)
F460 reading is converted into nmole 4-MU based on 4-MU standard curve and A550 is converted into mg of protein based on the protein standard curve. One unit of Gba activity is defined as nmole of 4-MU released in one hour.
To determine if and in what time frame the effects of drinking water dosed AT2101 on L444P mice regress after cessation of the treatment, a washout study was performed. Nine male 3 month old L444P mice were dosed at about 10 mg/kg/day for 4 weeks with an equal number of mice untreated as a control.

[1] = Detection of IFG in the CSF of treated monkeys; assay type: in vivo
[2] = tested on: N370S Gaucher fibroblasts (DMN89.15); experiment: Gba / LAMP-1 lysosomal staining (confocal microscopy) in N370S Gaucher fibroblasts; assay type: cell-based, human; conditions: for Gba staining localization: N370S Gaucher fibroblasts; for Amount of Gba in the lysosomes: dual Gba/LAMP-1 staining vs untreated control; for Lysosome staining pattern for Gba and LAMP-1: dual staining vs untreated control
Experimental: N370S fibroblasts (DMN89.15) were cultured in DMEM with 10% FBS and 1% penn/strep at 37 C with […]. Wild-type fibroblast cell line CRL-2097 form a healthy individual was used as a control. Cells were sub-cultured from 10 cm plates into 12-well plates with cover slips. Cells from one confluent 10 cm plate were diluted in 38 ml of culture medium.
C-benzyl-isofagomine-control (secondary antibody only); untreated; 0.03 μM; 0.1 μM; 0.3 μM; 1.0 μM; 3.0 μM; and 10.0 μM.
Isofagomine-control (secondary antibody only); untreated; 10 μM; 30 μM; 100 μM; 1 nM; 3 nM; and 10 nM.
Cells were cultured for a total of about 6 days.
Cells were washed for 5 minutes in PBS, fixed for 15 minutes in 3.7% paraformaldahyde (in PBS), washed again for 5 minutes in PBS, and permeabilized with 0.5% saponin for 5 minutes. Cells were then washed with PBS containing 0.1% saponin, treated for 5 minutes with fresh 0.1% sodium borohydride/0.01% saponin, and washed 3 times with PBS with 0.1% saponin/1% BSA for 5 minutes each.
Cells were incubated for 1 h with 500 μl of primary anti-Gba (1:200) or anti-LAMP-1 (1:200; BD Pharmingen, Cat. No. 555798) antibody solution in PBS with 1% BSA. Lysosomal staining using LysoTracker® Red (Cambrex, East Rutherford, N.J.) was performed according to the manufacturer's instructions. Following incubation, cells were washed 3 times in 1% BSA containing 0.1% saponin in PBS, followed by incubation with the secondary antibody solution (1:500; anti-rabbit […] for anti-Gba and anti-mouse IgG AlexaFluor594 for anti-LAMP-1). Cells were mounted onto coverslips, sealed, and immediately viewed.
Cells were visualized using a confocal microscope. The red and green channel gains were set to 6 and the laser power was optimized using the intensity window, and were not adjusted for the rest of the experiment. All slides were analyzed at the same sitting and all images were gathered without any zoom using the 20× and 60× lens, the small pinhole, optimal pixel size, an average of 2 scans, and red and green channels were acquired simultaneously as in all previous experiments.

Gaucher patient cells = conditions: cited from earlier work
[3] = molecular target: T1, human mutant α-Gal A (R301Q) (Homo sapiens, UniProt P06280, R301Q); conditions: neutral pH; cited from earlier work
T1 sequence (P06280 32-429 R301Q): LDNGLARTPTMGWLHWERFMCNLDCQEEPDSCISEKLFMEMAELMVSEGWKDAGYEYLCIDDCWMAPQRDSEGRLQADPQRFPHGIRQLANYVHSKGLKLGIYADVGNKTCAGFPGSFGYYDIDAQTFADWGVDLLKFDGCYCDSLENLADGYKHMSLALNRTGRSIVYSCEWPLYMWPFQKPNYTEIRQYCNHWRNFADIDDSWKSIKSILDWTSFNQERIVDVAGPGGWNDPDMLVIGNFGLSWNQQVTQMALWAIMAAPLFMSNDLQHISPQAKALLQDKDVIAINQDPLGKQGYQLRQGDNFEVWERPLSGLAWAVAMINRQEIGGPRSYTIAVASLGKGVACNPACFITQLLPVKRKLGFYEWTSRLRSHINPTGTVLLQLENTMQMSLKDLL

[4] = tested on: lymphoblasts established from Fabry patients with R301Q or Q279E mutations; conditions: cited from earlier work
mutant (R301Q) α-Gal A = molecular target: T2, mutant (R301Q) α-Gal A (Homo sapiens, UniProt P06280, R301Q); conditions: oral administration, transgenic mice overexpressing mutant (R301Q) α-Gal A; cited from earlier work
T2 construct: host or cells: major organs of transgenic mice
T2 sequence (P06280 32-429 R301Q): T1 sequence (P06280 32-429 R301Q)

[5] = N370S fibroblasts, concentration not given
[6] = after two weeks of treatment, data not shown
[7] = N370S fibroblasts, 3.0 μl (so in the source)

SMILES: OC[C@H]1CNC[C@@H](O)[C@@H]1O [isofagomine, (3R,4R,5R)-5-(hydroxymethyl)-3,4-piperidinediol]
- Gba activity in brain (human L444P mutated Gba; after 2 weeks of treatment, untreated about 1 U/mg): about 4.5 U/mg
- Gba activity in brain (human L444P mutated Gba; after 4 weeks of treatment, untreated about 1 U/mg): about 4.5 U/mg
- Gba activity in brain (human L444P mutated Gba; after 12 weeks of treatment, p<0.001): about 6 U/mg
- Gba activity in brain, washout study (in words) (human L444P mutated Gba; after 4 weeks of treatment at 10 mg/kg/day (FIG. 1B)): significantly elevated
- Gba activity in brain (in words) (human L444P mutated Gba; after as little as two weeks of treatment, persisted through 4-12 weeks (FIG. 1A)): Significant increase
- Detection in the CSF following treatment [1]: detected
- Gba staining localization ([2]; 30 μM, Gba staining only (FIG. 2M)): localize to lysosomes
- Amount of Gba in the lysosomes ([2]; N370S fibroblasts, 30.0 μM): increased
- Lysosome staining pattern for Gba and LAMP-1 ([2]; N370S fibroblasts, 30.0 μM): re-established a normal lysosome punctuate staining pattern
- Amount of Gba seen in the lysosome [2, 5]: increased
- Lysosomal staining pattern of the cells [2, 5]: restored a normal lysosomal staining pattern
- Rescue of Gba (Gaucher patient cells): rescue

SMILES: OCC1C(Cc2ccccc2)NCC(O)[C@@H]1O (stereo partly shown) [C-benzyl-isofagomine]
- Gba activity in brain (in words) (human L444P mutated Gba; [6]): trend toward increased activity
- Gba activity in lung (in words) (human L444P mutated Gba; [6]): trend toward increased activity
- Gba activity in spleen (in words) (human L444P mutated Gba; [6]): significant increased
- Gba activity in brain (in words) (human L444P mutated Gba; after two weeks of treatment, data not shown, listed as AT2206): trend toward increase
- Gba staining localization ([2]; 3 μM, Gba staining only (FIG. 2N)): localize to lysosomes
- Amount of Gba in the lysosomes [2, 7]: increased
- Lysosome staining pattern for Gba and LAMP-1 [2, 7]: re-established a normal lysosome punctuate staining pattern

SMILES: OC[C@H]1NC[C@H](O)[C@@H](O)[C@H]1O [DGJ, 1-deoxygalactonojirimycin]
- In vitro stability of the mutant enzyme [3]: effectively increased
- Mutant enzyme activity in lymphoblasts [4]: enhanced
- Enzyme activity in major organs (mutant (R301Q) α-Gal A): substantially elevated
